Where “and” joins values, the source holds several entries; their conditions need not be identical. Equal entries are not always repeated. Where two headings read alike, the source gives them in different places.
What was measured:
prostaglandin e2 [1] = settings: cited from earlier work; for change in serum levels of prostaglandin e2: niceritrol alone, Aspirin® added to niceritrol
prostaglandin e2 [2] = settings: cited from earlier work; for effect on nicotine-initiated prostaglandin e2 production: cells treated with 100 mcM nicotine, NSAID 0.1 to 100 mcM; for prostaglandin e2 concentration: nicotine (100 mcM) pre-treated cells, highest NSAID concentration (log M=−4), absence of IL-18, basal 337 pM, digitised from published graph
prostaglandin e2 [3] = settings: cited from earlier work; for prostaglandin e2 concentration: nicotine pre-treated cells, highest NSAID concentration (log M=−4), absence of IL-18, basal 0.35 nM, digitised from published graph; for effect on nicotine-induced PGE2 production: nicotine-treated cells
[4] = test system: prostaglandin e2 like substance (PGe2-LS); settings: cited from earlier work; for PGe2-LS release (M±SE): samples treated with indomethacin and the pyridine derivative, control group 0.54±0.06, n=5
prostaglandin e2 [5] = assay: serum prostaglandin e2 levels in normal male volunteers after niceritrol and Aspirin® (Nozaki et al. 1987); type: in vivo, human; settings: after administration of niceritrol and Aspirin®; basal 23.3±11.8 pg/ml
Source text: FIG. 3. is prostaglandin e2 section extracted by inventors from graph of FIG. 1. from publication “Increased compliance of niceritrol treatment by addition of Aspirin®: relationship between changes in prostaglandins and skin flushing.” (Nozaki, S. et al., 1987, Int J Clin Pharmacol Ther Toxicol, v 25, p: 643-7). Inventors marked on said figure extracted by inventors by using UN-SCAN-IT® basal (52.3, 33.6, 26.6, 21.2, 19.1, 18.1, 16.8, 16.0, 15.1, 13.9), and after niceritrol and Aspirin® administration (46.2, 16.6, 42.0, 44.1, 8.2, 11.4, 18.6, 9.9, 27.6, 6.2) concentration coordinates (pg/ml) of prostaglandin e2. […]
Inventors used UN-SCAN-IT® to obtain digital concentration data from prostaglandin e2 section of the graph from the FIG. 1. of the publication (FIG. 3.). The obtained by inventors serum basal (52.3, 33.6, 26.6, 21.2, 19.1, 18.1, 16.8, 16.0, 15.1, 13.9), and after niceritrol and Aspirin® administration (46.2, 16.6, 42.0, 44.1, 8.2, 11.4, 18.6, 9.9, 27.6, 6.2) prostaglandin e2 digital levels (pg/ml) were statistically analysed using paired t-test.

[6] = test system: radioimmunoassayed prostaglandin E (R-PGE); settings: basal 21±10 pg/ml, cited from earlier work
[7] = test system: radioimmunoassayed prostaglandin E (R-PGE); settings: naproxen and nicotinic acid, basal 35.6±29.8, cited from earlier work

## CC(=O)Oc1ccccc1C(=O)O [Aspirin®]
Prostaglandin e2 [1]
  change in serum levels of prostaglandin e2: significantly decreased

## CS(=O)(=O)Nc1ccc([N+](=O)[O-])cc1OC1CCCCC1 [NS398]
Prostaglandin e2 [2]
  effect on nicotine-initiated prostaglandin e2 production: suppressed
  prostaglandin e2 concentration: 761 pM
Prostaglandin e2 [3]
  prostaglandin e2 concentration: 0.55 nM
  effect on nicotine-induced PGE2 production: inhibited

## COc1ccc2c(c1)c(CC(=O)O)c(C)n2C(=O)c1ccc(Cl)cc1 [indomethacin]
Prostaglandin e2 [2]
  effect on nicotine-initiated prostaglandin e2 production: suppressed
  prostaglandin e2 concentration: 768 pM
Prostaglandin e2 [3]
  prostaglandin e2 concentration: 0.50 nM
  effect on nicotine-induced PGE2 production: inhibited
[4]; indomethacin treatment
  effect on PGe2-LS release stimulated by pyridine derivatives: reduced

## O=C(OCC(COC(=O)c1cccnc1)(COC(=O)c1cccnc1)COC(=O)c1cccnc1)c1cccnc1 [niceritrol]
Prostaglandin e2 [5]
  mean (M±SD) serum prostaglandin e2 concentration: 23.1 ± 15.8 pg/mL
Prostaglandin e2 [1]; after niceritrol and Aspirin® administration, 10 normal male volunteers, digitised from published graph
  serum prostaglandin e2 level, individual volunteers: 46.2 pg/mL and 6.2 pg/mL and 16.6 pg/mL and 42.0 pg/mL and 44.1 pg/mL and 8.2 pg/mL and 11.4 pg/mL and 18.6 pg/mL and 9.9 pg/mL and 27.6 pg/mL
Prostaglandin e2 [1]
  change in serum levels of prostaglandin e2: significantly increased

## O=C(O)c1cccnc1 [nicotinic acid]
[4]
  PGe2-LS release (M±SE): 0.63 ± 0.03 ng/min
[6]; infusion of nicotinic acid
  plasma concentration of R-PGE (M±SE): 49 ± 7 pg/mL
[6]; nicotinic acid infusion after naproxen treatment, n=3
  plasma concentration of R-PGE (M±SE): 8 ± 2 pg/mL
[7]; 5 min
  actual release of R-PGE (M±SE): 8.2±13.8 pg/100 ml tissue×min
[7]; 10 min
  actual release of R-PGE (M±SE): 10.6±16.6 pg/100 ml tissue×min
[7]; 20 min
  actual release of R-PGE (M±SE): 18.8±16.2 pg/100 ml tissue×min
[7]; 60 min
  actual release of R-PGE (M±SE): 15.1±13 pg/100 ml tissue×min

## OCc1cccnc1 [nicotinyl alcohol]
[4]
  PGe2-LS release (M±SE): 0.52 ± 0.06 ng/min

## CN(C)C(=O)Oc1ccc[n+](C)c1 [pyridostigmine bromide]
[4]
  PGe2-LS release (M±SE): 0.50 ± 0.06 ng/min

## Cc1ncc(CO)c(CO)c1O.Cl [pyridoxine hydrochloride]
[4]
  PGe2-LS release (M±SE): 0.44 ± 0.02 ng/min
